What was measured:
Type in all cases: cell-based
ECV304 = test: DNA fragmentation by diphenylamine reaction; conditions: ECV304, end of 72 hours at identified IC50 concentrations
Protocol: (§1) IC50 (the concentration inhibiting the proliferation of 50% of cells) of these 4 new compounds presented is identified by cytotoxicity tests in K562 (leukaemia) and ECV304 (endothelial) cells. Subsequently, it is studied to understand pathway through which the death of the cells is occurred (the mechanism of action) after the cells are treated for 72 hours at these concentrations. The apoptosis is analysed with immununocytochemical methods and flow cytometry and DNA fragmentation is analysed with diphenylamine reaction. […] The inventors also analysed DNA fragmentation rates occurred in cells at the end of 72 hours at identified IC50 concentrations.

K562 = test: DNA fragmentation by diphenylamine reaction; conditions: K562, end of 72 hours at identified IC50 concentrations
Protocol: as §1

K562 (leukaemia) cells = test: cytotoxicity test (MTT), IC50 after 72 hours incubation
Protocol: (§2) IC50 (the concentration inhibiting the proliferation of 50% of cells) of these 4 new compounds presented is identified by cytotoxicity tests in K562 (leukaemia) and ECV304 (endothelial) cells. Subsequently, it is studied to understand pathway through which the death of the cells is occurred (the mechanism of action) after the cells are treated for 72 hours at these concentrations. The apoptosis is analysed with immununocytochemical methods and flow cytometry and DNA fragmentation is analysed with diphenylamine reaction. […] DNA fragmentation is found high in all experiment groups (70-80%). These rates are compatible with IC50 obtained with MTT test because IC50 is the dose which kills the 50% of the cells. […] Furthermore, this rate is compatible with the percentage of total dead cells (52-64 %) which is the addition of apoptotic and necrotic cells obtained by annexin/PI dyeing.

[1] = tested on: ECV304 (endothelial) cells; test: as above; conditions: incubated for 72 hours
Protocol: as §2

K562 cells = test: flow cytometry with Annexin V and PI dyeing (apoptosis / necrosis); conditions: K562, 72 hours at IC50 concentration; for Living cell (%) / Necrotic cell (%) / Post- apoptotic cell (%) / Pre- apoptotic cell (%): Annexin V and PI; for Dead cell (%): addition of apoptotic and necrotic cells
Protocol: The Figure 2 gives the flow cytometry images of K562 cells, undergoing pre-apoptosis, post-apoptosis and necrosis, which are dyed with Annexin V and PI, after being incubated with thiosemicarbazones of the invention for 72 hours. Herein the images are as follows; A) Control, B) Compound I (0.6µg/ml), C) Compound II (0.6µg/ml), D) […], and E) Compound IV (0.1µg/ml). […] The inventors have characterized cells treated with compounds I-IV in the conditions of Figure 2 in order to better observe the mechanism of action of thiosemicarbazones presented in the current invention.

[2] = K562, as listed in Table 3, rounded, the concentration applied in the flow cytometry
[3] = K562 cells, incubated for 72 hours

Compound	DNA fragmentation % (ECV304) [%]	DNA fragmentation % (K562) [%]	IC50 (K562 (leukaemia) cells; [2]) [µg/mL]	IC50 (K562 (leukaemia) cells; [3]) [microgram/ml]	IC50 [1] [microgram/ml]	Apoptosis / Necrosis ratio (K562 cells)	Living cell (%) (K562 cells)	Necrotic cell (%) (K562 cells)	Post- apoptotic cell (%) (K562 cells)	Pre- apoptotic cell (%) (K562 cells)	Dead cell (%) (K562 cells)
COc1ccc2c(c1)[O][Ni][O]c1c(O)cccc1C=NN=C(SC)N=C2 [Compound I, N(1)-3-hydroxysalicylidene-N(4)-4-methoxysalicylideneisothio-semicarbazidato Nickel (II)]	20±0.5	80±1.4	0.6	0.61	>5	13.56	35.18	2.57	27.39	34.85	64.82
COc1ccc2c(c1)[O][Fe]([Cl])[O]c1cc(O)ccc1C=NN=C(SC)N=C2 [Compound IV, Monochloro-N(1)-4-hydroxysalicylidene-N(4)-4-methoxy-salicylideneisothiosemicarbazidato Iron (III)]	28±2.4	84±1.4	0.1	0.1	>5	17.77	41.07	2.11	19.32	37.5	58.93
Monochloro-N(1)-3--hydroxysalicylidene-N(4)-4-methox salicylideneisothiosemicarbazidato Iron (III) [Compound II]	18±2.1	79±0.7	0.6	0.62	>5	9.80	47.4	3.15	18.54	30.9	52.6
COc1ccc2c(c1)[O][Ni][O]c1cc(O)ccc1C=NN=C(SC)N=C2 [III, N(1)-4-hydroxysalicylidene-N(4)-4-methoxysalicylideneisothio-semicarbazidato Nickel (II)]	22±1.7	75±1.4	0.6	0.65	>5	11.82	36.11	3.17	23.23	37.5	63.89

— EP2881399B1, “New thiosemicarbazone chelates having anticancer activity” (priority 2013, dated 2015)
